According to patent US11472814B2, “Thienopyranones and furanopyranones as checkpoint inhibitors and modulators of anti-tumor immunity” (SignalRx Pharmaceuticals, Inc., priority 2017, dated 2022):
“Also recorded” adds a separate entry of the source.

Key:
[1] = test system: MC38 tumors; assay: MC38 tumor growth in immunocompetent murine model; assay type: in vivo; conditions: vs vehicle
Excerpt: (§1) We investigated the effect of Compound 3 on immune cell in vitro and on tumor growth in in vivo in immunocompetent syngeneic tumor models and the effects on the macrophage and T cell immune compartment in vivo by this compound. […] In order to distinguish whether Compound 3 blocks tumor growth due to its effect on immune cell compartment and not on tumor compartment, we tested the effect of this chemotype on CT26 tumor growth in immunodeficient NSG mice vs immunocompetent Balb/c mice. […] Compound 3 has combinatorial immune-oncologic activity in vivo to stimulate anti-cancer innate and adaptive immunity in well-defined accepted immune competent murine models for cancer immunotherapy.
In contrast to above data, Compound 3 has a marked significant inhibitory effect on CT26, LLC and MC38 tumor growth in immunocompetent murine models. Conclusion: this establishes effect of Compound 3 as immune-oncologically active agent in cancer immunotherapy. In immunocompetent mice with same tumor cell inoculum Compound 3 inhibited tumor growth by from 58-68%. p<0.001 in all experiments compared to vehicle control.

[2] = LLC tumor growth in immunocompetent WT mice; assay type: in vivo; conditions: CT26, LLC and MC38 in immunocompetent mice
Excerpt: as §1
Compound 3: a novel dual Syk/PI3K inhibitory chemotype: Combinatorial inhibition of Syk and PI3K increases anti-tumor innate and adaptive T cell immune response in vivo. Tumor volume of LLC inoculated subcutaneously in WT mice treated with 10 mg/Kg Compound 3 (n=9, ***p<0.0001, t test). Conclusion: Compound 3 suppressed tumor growth of LLC by 68% in this immunocompetent immune-oncology model system as compared to vehicle control treated mice.
In contrast to above data, Compound 3 has a marked significant inhibitory effect on CT26, LLC and MC38 tumor growth in immunocompetent murine models. Conclusion: this establishes effect of Compound 3 as immune-oncologically active agent in cancer immunotherapy. […]

[3] = molecular target: T1, BRD4-1 (Homo sapiens, UniProt O60885); assay: Bromodomain protein inhibition IC50, binding domain 1 of BRD4 (Reaction Biology Corp.); conditions: 10-point curve
T1 construct: purchased Reaction Biology Corp., Malvern, Pa; (contract assay service)
Excerpt: (§2) The inhibitory activity of a compound of the invention against PI3K and/or BRD4 and/or SYK and/or CDK4/6 can be readily determined using methods known to the skilled artisan, or by commercial vendors offering such services. […] In vivo, PI3K inhibition can be determined from target tissue biopsies by standard tissue processing to disrupt cells and then performing Western Blot analysis to determine the presence or absence of pAKT (substrate of PI3K) relative to a control sample. The activity of a compound of the invention as an inhibitor of a bromodomain-containing protein, such as a BET protein, such as BRD2, BRD3, BRD4, and/or BRDT, or an isoform or mutant thereof, may be determined in vitro, in vivo, or in a cell line. In vitro assays include assays that determine inhibition of bromodomain-containing proteins. Alternatively, inhibitor binding may be determined by running a competition experiment where a provided compound is incubated with a bromodomain-containing protein, such as a BET protein bound to known ligands, labeled or unlabeled. For example, bromodomain inhibition can be determined in vitro using Alpha Screen Technology (http://www.reactionbiologv.com/webapps/site/NewsPDFs/Bromodomain%20Assay %20Platform %20for %20Drug %20Screening %20and %20Discovery.pdf). In vivo bromodomain inhibition can be determined indirectly by evaluating the amount of protein present of proteins whose genes' transcription is influenced or controlled by the bromodomain protein, for example, the MYCN protein transcription is controlled by BRD4 (J. E. Delmore et al., Cell 2011, 146, 904-917; A. Puissant, Cancer Discov. 2013, 3, 308-323). Bromodomain inhibition may also be predicted by in silico modeling as described below in the Examples. Additionally, the company Promega offers a SYK luminescent assay to determine a compound's ability to inhibit the SYK protein (https://www.promega.com/-/media/files/resources/protocols/kinase-enzyme-appnotes/syk-kinase-assay-protocol.pdf?la=en).
(§3) Compounds of the invention were characterized for their ability to inhibit target proteins using third party vendors offering such services. PI3K alpha, gamma, and delta inhibition activity was determined by Thermo Fisher Scientific-Biosciences Life Sciences Solutions, Madison, Wis. The bromodomain protein inhibition (binding domain 1 and 2 of BRD4) as well as SYK inhibition was determined at Reaction Biology Corp., Malvern, Pa. […] The IC50 data (shown below in Table 5) was calculated from a 10-point curve and is expressed in nanomolar concentration (nM) rounded off to the nearest whole number. […]

[4] = molecular target: T2, PI3K α (Homo sapiens, UniProt P42336); assay: PI3K alpha inhibition IC50 (Thermo Fisher); assay type: biochemical; conditions: 10-point curve
T2 construct: purchased Thermo Fisher Scientific-Biosciences Life Sciences Solutions, Madison, Wis; (contract assay service)
Excerpt: as §2, §3

[5] = molecular target: T3, PI3K γ (Homo sapiens, UniProt P48736); assay: PI3K gamma inhibition IC50 (Thermo Fisher); assay type: biochemical; conditions: 10-point curve
T3 construct: purchased Thermo Fisher Scientific-Biosciences Life Sciences Solutions, Madison, Wis; (contract assay service)
Excerpt: as §2, §3

[6] = molecular target: T4, BRD4-2 (Homo sapiens, UniProt O60885); assay: Bromodomain protein inhibition IC50, binding domain 2 of BRD4 (Reaction Biology Corp.); conditions: 10-point curve
T4 construct: purchased Reaction Biology Corp., Malvern, Pa; (contract assay service)
Excerpt: as §2, §3

[7] = test system: CT26 tumor cells; assay: In vitro viability of CT26 tumor cells; assay type: cell-based; conditions: for % Cell Viability: CT26 tumor cells in vitro
Excerpt: as §1
Compound 3 has no effect on the in vitro viability of CT26 tumor cells.

[8] = test system: CT26 tumors; assay: CT26 tumor growth in immunodeficient NSG mice; assay type: in vivo; conditions: 3 mg/kg
Excerpt: as §1
Conclusion: this establishes effect of Compound 3 as immune-oncologically active agent in cancer immunotherapy. In immunocompetent mice with same tumor cell ino kculum Compound 3 inhibited CT26 tumor growth by 58% decrease in tumor volume. (n=x, p<0.001, t test).

[9] = molecular target: T5, SYK (Homo sapiens, UniProt P43405); assay: SYK inhibition IC50 (Reaction Biology Corp.); assay type: biochemical; conditions: 10-point curve; read-out: SYK IC50
T5 construct: purchased Reaction Biology Corp., Malvern, Pa; (contract assay service)
Excerpt: as §2
Compounds of the invention were characterized for their ability to inhibit target proteins using third party vendors offering such services. PI3K alpha, gamma, and delta inhibition activity was determined by Thermo Fisher Scientific-Biosciences Life Sciences Solutions, Madison, Wis. The bromodomain protein inhibition (binding domain 1 and 2 of BRD4) as well as SYK inhibition was determined at Reaction Biology Corp., Malvern, Pa. Additional information on each of the assays performed and services provided is available at each company's website on the internet (https://www.thermofisher.com/us/en/home/life-science.html and http://www.reactionbiology.com/webapps/site, respectively). The IC50 data (shown below in Table 5) was calculated from a 10-point curve and is expressed in nanomolar concentration (nM) rounded off to the nearest whole number. Where multiple values were obtained the range from lowest to highest values is presented. NI=no inhibition detected up to 50 uM or IC50 not reached at 50 uM.

[10] = test system: LLC tumors, Ifng and Gzmb mRNA; assay: mRNA expression of Ifng and Gzmb in LLC tumors; assay type: in vivo, mice; conditions: normalized to GAPDH
Description: Effect of Compound 3 treatment in vivo at 10 mg/kg dose on mRNA expression of interferon (Ifng) gamma and granzyme b (Gzmb) in LLC tumors implanted in vehicle vs Compound 3 treated mice (n=3, biological replicates, p<0.05, t test). Relative gene expression is normalized to a house keeping gene, GAPDH for comparison.

T3 sequence (P48736 whole entry): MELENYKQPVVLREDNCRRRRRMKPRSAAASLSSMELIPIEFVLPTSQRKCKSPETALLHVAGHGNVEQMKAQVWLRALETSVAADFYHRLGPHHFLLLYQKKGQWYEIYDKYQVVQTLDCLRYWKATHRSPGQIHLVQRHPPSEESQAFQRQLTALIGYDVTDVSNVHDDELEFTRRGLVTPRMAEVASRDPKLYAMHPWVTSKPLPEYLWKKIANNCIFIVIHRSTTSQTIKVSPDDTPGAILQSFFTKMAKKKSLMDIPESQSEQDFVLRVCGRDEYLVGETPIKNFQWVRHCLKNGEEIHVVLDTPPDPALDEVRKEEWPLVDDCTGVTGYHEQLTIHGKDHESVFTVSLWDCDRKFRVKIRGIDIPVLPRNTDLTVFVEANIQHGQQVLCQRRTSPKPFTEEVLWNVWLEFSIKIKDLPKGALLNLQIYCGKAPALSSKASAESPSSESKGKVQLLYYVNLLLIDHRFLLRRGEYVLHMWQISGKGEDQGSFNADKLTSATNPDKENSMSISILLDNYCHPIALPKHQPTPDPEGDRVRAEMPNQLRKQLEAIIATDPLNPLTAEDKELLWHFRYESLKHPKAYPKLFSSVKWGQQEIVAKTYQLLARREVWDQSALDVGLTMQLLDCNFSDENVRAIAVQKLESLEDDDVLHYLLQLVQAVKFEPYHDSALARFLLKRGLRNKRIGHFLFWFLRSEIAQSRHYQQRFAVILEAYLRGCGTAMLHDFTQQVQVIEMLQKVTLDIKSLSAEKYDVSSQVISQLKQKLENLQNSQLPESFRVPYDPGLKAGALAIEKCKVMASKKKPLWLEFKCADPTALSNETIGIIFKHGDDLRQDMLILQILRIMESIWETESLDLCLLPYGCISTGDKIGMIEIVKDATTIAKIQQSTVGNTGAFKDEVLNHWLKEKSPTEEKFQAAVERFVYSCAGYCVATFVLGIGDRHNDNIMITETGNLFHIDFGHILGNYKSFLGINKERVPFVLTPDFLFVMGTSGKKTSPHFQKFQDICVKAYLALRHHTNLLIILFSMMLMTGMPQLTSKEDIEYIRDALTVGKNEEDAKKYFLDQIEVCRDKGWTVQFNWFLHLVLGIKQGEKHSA
T2 sequence (P42336 whole entry): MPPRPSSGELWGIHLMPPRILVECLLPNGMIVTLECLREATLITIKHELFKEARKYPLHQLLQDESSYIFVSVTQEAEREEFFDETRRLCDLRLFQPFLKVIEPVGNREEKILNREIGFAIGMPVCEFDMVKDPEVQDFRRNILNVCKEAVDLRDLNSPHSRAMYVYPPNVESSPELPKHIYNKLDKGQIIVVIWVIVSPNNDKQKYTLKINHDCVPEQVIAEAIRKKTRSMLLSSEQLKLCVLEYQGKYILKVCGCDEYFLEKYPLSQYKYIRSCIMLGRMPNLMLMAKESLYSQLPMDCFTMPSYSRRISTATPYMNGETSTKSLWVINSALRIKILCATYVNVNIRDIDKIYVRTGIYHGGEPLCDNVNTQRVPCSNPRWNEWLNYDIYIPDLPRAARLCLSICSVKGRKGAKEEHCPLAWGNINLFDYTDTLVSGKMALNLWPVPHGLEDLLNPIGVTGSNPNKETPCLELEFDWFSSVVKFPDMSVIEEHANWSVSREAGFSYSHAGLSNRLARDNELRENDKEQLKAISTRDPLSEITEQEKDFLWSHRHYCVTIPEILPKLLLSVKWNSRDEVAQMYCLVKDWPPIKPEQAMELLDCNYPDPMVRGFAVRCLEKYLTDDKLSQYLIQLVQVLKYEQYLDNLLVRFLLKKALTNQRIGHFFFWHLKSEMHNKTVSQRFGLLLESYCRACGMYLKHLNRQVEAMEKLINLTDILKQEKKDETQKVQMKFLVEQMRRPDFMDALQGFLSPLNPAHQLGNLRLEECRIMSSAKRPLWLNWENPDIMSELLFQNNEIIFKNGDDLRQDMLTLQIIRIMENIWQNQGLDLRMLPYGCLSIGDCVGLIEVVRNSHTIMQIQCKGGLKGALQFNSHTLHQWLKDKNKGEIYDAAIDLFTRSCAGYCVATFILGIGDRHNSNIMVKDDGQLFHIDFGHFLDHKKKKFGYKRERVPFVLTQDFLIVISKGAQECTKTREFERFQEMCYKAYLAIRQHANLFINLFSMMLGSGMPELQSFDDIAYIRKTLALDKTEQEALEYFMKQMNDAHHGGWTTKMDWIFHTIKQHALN
T2 sequence (P27986 whole entry partner): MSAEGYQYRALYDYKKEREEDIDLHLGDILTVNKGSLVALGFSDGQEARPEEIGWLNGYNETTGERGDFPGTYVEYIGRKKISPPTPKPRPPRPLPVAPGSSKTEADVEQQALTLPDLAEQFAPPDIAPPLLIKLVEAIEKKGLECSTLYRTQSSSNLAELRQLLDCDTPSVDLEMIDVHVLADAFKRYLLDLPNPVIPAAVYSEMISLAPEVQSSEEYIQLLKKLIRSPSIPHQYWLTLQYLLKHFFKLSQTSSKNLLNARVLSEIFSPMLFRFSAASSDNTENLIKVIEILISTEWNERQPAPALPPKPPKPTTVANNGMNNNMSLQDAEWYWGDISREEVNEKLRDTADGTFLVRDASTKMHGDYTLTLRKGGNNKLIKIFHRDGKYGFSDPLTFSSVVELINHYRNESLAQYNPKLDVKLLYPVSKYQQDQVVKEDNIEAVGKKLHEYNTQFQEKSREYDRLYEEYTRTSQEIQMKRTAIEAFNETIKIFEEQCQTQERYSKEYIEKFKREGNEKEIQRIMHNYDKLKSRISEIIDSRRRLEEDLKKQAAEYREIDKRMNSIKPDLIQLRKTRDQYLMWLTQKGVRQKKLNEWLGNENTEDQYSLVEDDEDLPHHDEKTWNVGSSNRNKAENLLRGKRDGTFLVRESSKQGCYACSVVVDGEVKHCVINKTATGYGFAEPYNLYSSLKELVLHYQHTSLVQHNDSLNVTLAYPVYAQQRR

Q: Which results are given for `Cc1nn(-c2ccnc(Nc3ccc(-c4csc5c(=O)cc(N6CCOCC6)oc45)cc3)n2)cc1CN1CCC1` [Compound 3, 3-[p-(4-{4-[(1-Azetidinyl)methyl]-3-methyl-1H-pyrazol-1-yl}-2-pyrimidinylamino)phenyl]-5-morpholino-4-oxa-1-thia-7-indenone]?
A: % Growth inhibition of MC38 tumor [1]: 62 +/− 24%; tumor growth inhibition across models [2]: 58-68%; IC50 [3]: 1000 to 5000 nM; IC50 [4]: 100 to 1000 nM; IC50 [5]: 5000 to 50000 nM; IC50 [6]: 1000 to 5000 nM; in vitro viability of CT26 tumor cells [7]: didn't show any effect; also recorded: no effect; % Cell Viability ([7]; Log Inhibitor conc. 1.68867): 96.5 ± 5.3%; % Cell Viability ([7]; Log Inhibitor conc. 1.9897): 96 ± 8.0%; % Cell Viability ([7]; Log Inhibitor conc. 2.29073): 91.6 ± 8.9%; % Cell Viability ([7]; Log Inhibitor conc. 2.59176): 91.3 ± 5.13%; % Cell Viability ([7]; Log Inhibitor conc. 2.89279): 89.8 ± 6.7%; % Cell Viability ([7]; Log Inhibitor conc. 3.19382): 87.3 ± 4.1%; % Cell Viability ([7]; Log Inhibitor conc. 3.49485): 87.1 ± 9.6%; % Cell Viability ([7]; Log Inhibitor conc. 3.79588): 84.3 ± 4.3%; % Cell Viability ([7]; Log Inhibitor conc. 4.09691): 83.9 ± 6.27%; % Cell Viability ([7]; Log Inhibitor conc. 4.39794): 83.6 ± 5.1%; % Cell Viability ([7]; Log Inhibitor conc. 4.69897): 77.4 ± 5.0%; % Growth inhibition ([8]; CT26 tumors in immunodeficient NSG mice, negative = increase in tumor growth): −33 ± 27%; CT26 tumor growth in NSG mice ([8]; immunodeficient NSG mice): did not reduce CT26 tumor growth; also recorded: no significant effect; IC50 [9]: < 100 nM; Ifng mRNA expression in LLC tumors ([10]; 10 mg/kg in vivo, n=3, vehicle 0.8 ± 0.18): 1.4 ± 0.27,; Gzmb mRNA expression in LLC tumors ([10]; 10 mg/kg in vivo, n=3, vehicle 0.87 ± 0.27): 1.87 ± 0.5; expression of Ifng and Gzmb in LLC tumors ([10]; 10 mg/kg, vs vehicle): increased expression of the inflammatory cytokines, Ifng and GzmB; also recorded: increased the expression of immunostimulatory T cell immune effectors
